Assay: Pharmacokinetics (PK) test of immediate release formulation (capsule formulation) in human
Assay type: in vivo
Settings: healthy subjects; immediate release capsules, 0.1 to 340 mg; FIG. 11
Protocol: The immediate release formulations (capsule formulations) containing 0.1 mg, 1 mg, 5 mg, 20 mg, and 80 mg of the compound A were used in combinations as needed so that the dose of compound A became 0.1 mg, 1 mg, 3 mg, 10 mg, 30 mg, 100 mg, 160 mg, 240 mg, and 340 mg.

## Nc1nc(CC(=O)Nc2ccc(CCNC[C@H](O)c3ccccc3)cc2)cs1 [compound A, (R)-2-(2-aminothiazol-4-yl)-4′-[2-[(2-hydroxy-2-phenylethyl)amino]ethyl]acetic acid anilide]
  relation between maximum plasma concentration (Cmax) and increase in heart rate from the base line: positive correlation

Source: patent US11707451B2, “Pharmaceutical composition for modified release” (ASTELLAS PHARMA INC., priority 2010, dated 2023)
